Assay results as given in US20090318527A1, “INDOLE COMPOUNDS AND METHODS OF USE THEREOF” (priority 2008, published 2009).
Counter-ions that a name gives are not always drawn.

What was measured:
human 5-HT2B receptor = molecular target: T1, human 5-HT2B receptor (Homo sapiens, UniProt P41595); experiment: Intracellular calcium flux assay, HEK 293 cells stably expressing 5-HT2B; type: cell-based; conditions: for EC50: each in triplicate, read-out: 5-HT2B mean EC50 ± SD; for Emax at 10 µM: HEK293, read-out: 5-HT2B functional activity (N/A class);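 for all read-outs here: calcium dye fluorescence read on a FLIPR Tetra, peak signal above baseline within 60 s after compound addition, seven-point concentration series from 10 pM up to 10 µM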
T1 construct: expressed in transfected cells; host or cells: HEK 293
T1 sequence (P41595 whole entry): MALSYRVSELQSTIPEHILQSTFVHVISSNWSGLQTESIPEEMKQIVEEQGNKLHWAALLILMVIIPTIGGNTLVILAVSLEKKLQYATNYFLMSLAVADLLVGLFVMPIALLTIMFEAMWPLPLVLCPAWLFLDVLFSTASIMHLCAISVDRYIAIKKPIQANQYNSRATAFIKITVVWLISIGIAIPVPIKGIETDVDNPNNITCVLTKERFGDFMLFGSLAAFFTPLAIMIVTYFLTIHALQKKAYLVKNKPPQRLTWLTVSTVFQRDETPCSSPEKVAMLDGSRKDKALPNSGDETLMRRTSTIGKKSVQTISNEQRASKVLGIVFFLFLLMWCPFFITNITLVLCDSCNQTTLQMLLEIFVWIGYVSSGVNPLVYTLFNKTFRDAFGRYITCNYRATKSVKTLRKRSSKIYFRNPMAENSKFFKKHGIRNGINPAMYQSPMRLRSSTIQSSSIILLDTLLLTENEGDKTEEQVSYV

5-HT2C = molecular target: T2, 5-HT2C (Homo sapiens, UniProt P28335); experiment: Intracellular calcium flux assay, HEK 293 cells stably expressing 5-HT2C; type: cell-based; parameters: expressed in transfected cells; host or cells: HEK 293; conditions: for Emax: HEK293, read-out: 5-HT2C efficacy as percentage of the maximal 5-HT response ± SD, at least three independent experiments, entries marked a (42, 50, 51, 52) single measurements; for EC50: read-out: 5-HT2C mean EC50 ± SD;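 for all read-outs here: calcium dye fluorescence read on FLIPR Tetra as peak signal above baseline within 60 s of compound addition, seven concentrations from 10 pM to 10 µM, each in triplicate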
T2 sequence (P28335 33-458): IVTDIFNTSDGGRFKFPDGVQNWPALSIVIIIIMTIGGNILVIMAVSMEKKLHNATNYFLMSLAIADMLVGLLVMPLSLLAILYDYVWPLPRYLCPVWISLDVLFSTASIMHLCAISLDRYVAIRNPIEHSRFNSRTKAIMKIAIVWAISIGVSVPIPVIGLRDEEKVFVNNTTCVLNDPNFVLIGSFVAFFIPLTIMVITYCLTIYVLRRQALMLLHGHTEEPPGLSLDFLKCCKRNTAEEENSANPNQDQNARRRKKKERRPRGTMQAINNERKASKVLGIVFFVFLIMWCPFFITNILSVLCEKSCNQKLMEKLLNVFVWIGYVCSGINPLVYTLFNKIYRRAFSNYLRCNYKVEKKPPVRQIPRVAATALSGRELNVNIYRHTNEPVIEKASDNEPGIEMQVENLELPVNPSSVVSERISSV

human 5-HT2A receptor = molecular target: T3, human 5-HT2A receptor (Homo sapiens, UniProt P28223); experiment: Intracellular calcium flux assay, HEK 293 cells stably expressing 5-HT2A; type: cell-based; conditions: for Emax at 10 µM: HEK293, read-out: 5-HT2A functional activity (N/A class); for EC50 / 5-HT2A efficacy as percentage of the maximal 5-HT response ± SD: calcium flux, at least three independent experiments; for EC50: each in triplicate, read-out: 5-HT2A mean EC50 ± SD;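 for all read-outs here: fluorescent calcium dye read on FLIPR Tetra, peak signal above baseline within 60 s after compound addition, seven concentrations spanning 10 pM to 10 µM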
T3 construct: expressed in transfected cells; host or cells: HEK 293
T3 sequence (P28223 whole entry): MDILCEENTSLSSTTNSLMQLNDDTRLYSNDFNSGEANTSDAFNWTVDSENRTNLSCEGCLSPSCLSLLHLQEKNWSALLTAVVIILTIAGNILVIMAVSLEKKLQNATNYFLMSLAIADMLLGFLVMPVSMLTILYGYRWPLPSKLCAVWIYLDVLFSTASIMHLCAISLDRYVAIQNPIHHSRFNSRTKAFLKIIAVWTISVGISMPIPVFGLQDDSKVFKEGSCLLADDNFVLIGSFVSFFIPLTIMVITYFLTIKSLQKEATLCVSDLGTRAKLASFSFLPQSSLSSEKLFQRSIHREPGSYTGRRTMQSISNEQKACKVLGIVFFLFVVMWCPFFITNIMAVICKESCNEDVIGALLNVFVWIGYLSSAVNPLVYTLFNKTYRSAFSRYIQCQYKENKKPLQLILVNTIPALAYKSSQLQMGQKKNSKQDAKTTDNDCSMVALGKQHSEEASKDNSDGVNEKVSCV

[1] = calcium flux, at least three independent experiments
[2] = at least three independent experiments, entries marked a (42, 50, 51, 52) single measurements

| SMILES | melting point [°C] | Emax (5-HT2C) [%] | EC50 (5-HT2C; [2]) [nM] | Emax at 10 µM (human 5-HT2A receptor; at 10,000 nM) [%] | Emax at 10 µM (human 5-HT2B receptor; at 10,000 nM) [%] | further results |
| --- | --- | --- | --- | --- | --- | --- |
| CCCOc1c(F)ccc2c1c(CCN(C)C)cn2CCC.Cl | 142 to 145 | – | – | – | – | – |
| CCCOc1cc(F)cc2c1c(CCN(C)C)cn2CC [Compound 36, 2-(1-Ethyl-6-fluoro-4-propoxy-1H-indol-3-yl)-N,N-dimethylethanamine] | 68.9 to 70.1 | 87 | 659 ± 352 | < 10 | – | EC50 (human 5-HT2B receptor; [1]): 543 ± 325 nM |
| CN(C)CCc1cn(C)c2c(F)ccc(OCc3ccccc3)c12 [Compound 50, 4-Benzyloxy-3-(2-dimethylaminoethyl)-7-fluoro-1-methyl-1H-indole] | 60 to 62 | 81 | 282 | < 10 | < 10 | – |
| CCCOc1ccc(F)c2c1c(CCN(C)C)cn2CCC [Compound 30, 2-(7-Fluoro-4-propoxy-1-propyl-1H-indol-3-yl)-N,N-dimethylethanamine] | – | 37 | 858 ± 289 | < 10 | < 10 | – |
| CCOc1ccc(F)c2c1c(CCN(C)C)cn2CC [Compound 24, 2-(4-Ethoxy-1-ethyl-7-fluoro-1H-indol-3-yl)-N,N-dimethylethanamine] | 59 to 60 | 77 | 57 ± 17.1 | – | – | 5-HT2B response as percentage of the maximal 5-HT response @ 10,000 (human 5-HT2B receptor; at 10,000 nM, EC50 not reached): (14 ± 4.8 @ 10,000) %; EC50 (human 5-HT2B receptor; [1]): > 5000 nM; 5-HT2A response as percentage of the maximal 5-HT response @ 10,000 (human 5-HT2A receptor; at 10,000 nM, EC50 not reached): (21 ± 5.5 @ 10,000) %; EC50 (human 5-HT2A receptor): > 2000 nM |
| CCOc1ccc(F)c2c1c(CCN(C)C)cn2C [Compound 26, 2-(4-Ethoxy-7-fluoro-1-methyl-1H-indol-3-yl)-N,N-dimethylethanamine] | – | 82 | 43 ± 18.8 | – | – | Emax (human 5-HT2B receptor; HEK293, read-out: 5-HT2B efficacy as percentage of the maximal 5-HT response ± SD, calcium flux, at least three independent experiments): 28%; EC50 (human 5-HT2B receptor; [1]): 217 ± 95.9 nM; 5-HT2A efficacy as percentage of the maximal 5-HT response ± SD (human 5-HT2A receptor): (25 ± 4.1%); EC50 (human 5-HT2A receptor): 1490 nM |
| CCCn1cc(CCN(C)C)c2cc(F)c(O)cc21 [Compound 84, 3-[2-(Dimethylamino-ethyl)]-5-fluoro-1-propyl-1H-indol-6-ol] | 157 to 159 | 70 | 507 ± 314 | < 10 | < 10 | – |
| CCn1cc(CCN(C)C)c2cc(F)c(O)cc21 [Compound 83, 3-[2-(Dimethylamino-ethyl)]-1-ethyl-5-fluoro-1H-indol-6-ol] | – | – | 221 ± 27 | – | – | 5-HT2B functional activity (N/A class) (human 5-HT2B receptor; at 10,000 nM): N/A (N/A: <10% max HT @ 10,000 nM); 5-HT2C efficacy as percentage of the maximal 5-HT response ± SD (5-HT2C; [2]): (73 ± 4%); 5-HT2A functional activity (N/A class) (human 5-HT2A receptor; at 10,000 nM): N/A (N/A: <10% max HT @ 10,000 nM) |
| CCCn1cc(CCN(C)C)c2c(OC)ccc(F)c21 [Compound 28, 2-(7-Fluoro-4-methoxy-1-propyl-1H-indol-3-yl)-N,N-dimethylethanamine] | – | 45 | 76 ± 39.1 | < 10 | < 10 | – |
| CN(C)CCc1cn(C)c2ccc(F)c(OCc3ccccc3)c12.Cl [Compound 52, 4-Benzyloxy-3-(2-dimethylaminoethyl)-5-fluoro-1-methyl-1H-indole hydrochloride] | 139 to 141 | 79 | 44 | < 10 | < 10 | – |
| CCOc1c(F)ccc2c1c(CCN(C)C)cn2C [Compound 59, 2-(4-Ethoxy-5-fluoro-1-methyl-1H-indol-3-yl)-N,N-dimethylethanamine hydrochloride] | – | 51 | 0.82 ± 0.23 | < 10 | < 10 | – |
| COc1c(F)cc(F)c2c1c(CCN(C)C)cn2C.Cl [Compound 58, 2-(5,7-Difluoro-4-methoxy-1-methyl-1H-indol-3-yl)-N,N-dimethylethanamine hydrochloride] | 185 to 189 | 51 | 2.4 ± 0.44 | < 10 | < 10 | – |
| NCCc1c[nH]c2ccc(O)cc12 [Compound 5-HT, 5-hydroxytryptamine, reference compound] | – | – | – | – | – | 5-HT2A efficacy as percentage of the maximal 5-HT response ± SD (human 5-HT2A receptor): (100%) |
